From article PMC8316002, “Inhibition of Escherichia coli Lipoprotein Diacylglyceryl Transferase Is Insensitive to Resistance Caused by Deletion of Braun’s Lipoprotein” (Journal of Bacteriology, 2021)
pEC50: −log10 of the molar value. ≈ marks a conversion by molar mass, not a printed value. Like-named read-outs stand apart in the source and are kept apart here. Where a SMILES comes first, the peptide text is derived from it. Bridges are numbered along the chain shown (N, C = ends). [ ]: non-standard residue; d: D form. Bip = N[C@@H](Cc1ccc(-c2ccccc2)cc1)C(=O)O; NMeF = CN[C@@H](Cc1ccccc1)C(=O)O

Key:
PA14 + EDTA = assay: microbe, parasite or virus in culture; assay type: cell-based, P. aeruginosa; settings: average of two independent experiments in duplicates
Experimental: (§1) Unless stated otherwise, E. coli cells were grown in Luria-Bertani (LB) medium (0.5% yeast extract, 1% tryptone, 0.5% NaCl) at 37°C. Where indicated, kanamycin (Kan) was added to culture media at a 50-μg/ml final concentration. MIC assays were performed based on Clinical and Laboratory Standards Institute (CLSI) guidelines. For in vitro growth curves, overnight cultures of WT CFT073, CFT073 Δlgt, and CFT073 Δlgt complemented with lgt from E. coli (lgt^Ec) or P. aeruginosa (lgt^Pa) were grown to mid-exponential phase (optical density at 600 nm [OD600] of 0.6) and then diluted to an OD600 of 0.1 to initiate growth curves. At various times, culture aliquots were diluted and plated in dilutions on LB+Kan agar, and CFU were enumerated in duplicates. Growth of MG1655 inducible deletion strains was measured by culturing in the presence of 2-fold dilutions of arabinose (starting arabinose concentrations for CFT073 and MG1655 inducible deletion strains were 4% and 0.8%, respectively). While […] was sufficient for WT growth of MG1655 Δlgt, 4% arabinose was used for CFT073 Δlgt based on comparing its growth to that of WT CFT073 as measured by CFU. OD600 growth measurements were performed using an EnVision 2101 multilabel reader plate reader (PerkinElmer) linked with Echo liquid handler (Labcyte). For time-kill experiments, bacteria were harvested in mid-exponential phase and treated with 12.5 μM G2824, 3.2 μM globomycin, and 1.6 μM vancomycin. CFU were enumerated at various times posttreatment. Bacterial culture medium containing 2% arabinose was used to induce lpp or lppΔK expression from pBad24 plasmids. Bacterial viability at different time points during the treatment was measured by enumerating CFU. Serum killing assays were carried out as previously described ([17]).

CFT073 + EDTA = assay: microbe, parasite or virus in culture; assay type: cell-based, E. coli; settings: average of at least four independent experiments in duplicates
Experimental: as §1

CFT073 Δlpp + EDTA = assay: microbe, parasite or virus in culture; assay type: cell-based, E. coli
Experimental: as §1

MG1655 = assay: microbe, parasite or virus in culture; assay type: cell-based, E. coli; settings: average of at least four independent experiments in duplicates
Experimental: as §1

CFT073 imp4213 = assay: microbe, parasite or virus in culture; assay type: cell-based, E. coli; settings: average of at least four independent experiments in duplicates
Experimental: as §1

MG1655 Δlpp + EDTA = assay: microbe, parasite or virus in culture; assay type: cell-based, E. coli
Experimental: as §1

CFT073 Δlpp = assay: microbe, parasite or virus in culture; assay type: cell-based, E. coli
Experimental: as §1

MG1655 + EDTA = assay: microbe, parasite or virus in culture; assay type: cell-based, E. coli; settings: average of at least four independent experiments in duplicates
Experimental: as §1

MG1655 Δlpp = assay: microbe, parasite or virus in culture; assay type: cell-based, E. coli
Experimental: as §1

CFT073 = assay: microbe, parasite or virus in culture; assay type: cell-based, E. coli; settings: average of at least four independent experiments in duplicates
Experimental: as §1

CFT073 imp4213 Δlpp = assay: microbe, parasite or virus in culture; assay type: cell-based, E. coli
Experimental: as §1

in vitro = assay type: cell-based; settings: human, representative of three independent replicates, read-out: EC50, mammalian cytotoxicity
Source text: TABLE 2 Growth inhibition of a panel of bacterial strains and eukaryotic cells by G9066, G2824, globomycin, and vancomycin | column: MIC or EC50 (μM)^a / G9066; MIC or EC50 (μM)^a / G2824; MIC or EC50 (μM)^a / Globomycin; MIC or EC50 (μM)^a / Vancomycin

[1] = CFT073 Δlpp + EDTA, average of at least four independent experiments in duplicates
[2] = MG1655 Δlpp + EDTA, average of at least four independent experiments in duplicates
[3] = CFT073 Δlpp, average of at least four independent experiments in duplicates
[4] = MG1655 Δlpp, average of at least four independent experiments in duplicates
[5] = CFT073 imp4213 Δlpp, average of at least four independent experiments in duplicates
[6] = Escherichia coli, read-out: MIC

Row | Compound | MIC (PA14 + EDTA) | MIC (CFT073 + EDTA) | MIC (CFT073 Δlpp + EDTA; [1]) | MIC (MG1655) | MIC (MG1655; read-out: MIC) | MIC (CFT073 imp4213) | MIC (MG1655 Δlpp + EDTA; [2]) | MIC (CFT073 Δlpp; [3]) | MIC (MG1655 + EDTA) | MIC (MG1655 Δlpp; [4]) | MIC (CFT073) | MIC (CFT073; read-out: MIC) | MIC (CFT073 imp4213 Δlpp; [5]) | pEC50 (in vitro; 293T) | pEC50 (in vitro; Hela) | pEC50 (in vitro; HepG2) | other results
1 | CN1C(=O)[C@H](Cc2ccc(-c3ccccc3)cc2)NC(=O)CNC(=O)[C@H](CC(=O)O)NC(=O)[C@@H](Cc2ccccc2)NC(=O)CSC[C@@H](C(=O)NCC(=O)N[C@@H](CCCCN)C(=O)N[C@@H](CCCCN)C(N)=O)NC(=O)[C@H](CCCNC(=N)N)NC(=O)[C@H](CO)NC(=O)[C@H](Cc2ccc(-c3ccccc3)cc2)NC(=O)[C@@H]1Cc1ccccc1 [G2824] ({CH2CO}-[dF]DG[Bip][NMeF][Bip]SRCGKK-NH2; thioether N-9) | 6.3 µM (≈ 10.4 µg/mL) | 3.1 µM (≈ 5.1 µg/mL) | 2.3 µM | ~100 µM (≈ 164 µg/mL) | 93.8 µM (≈ 154 µg/mL) | 8.4 µM (≈ 13.8 µg/mL) | 3.1 µM | 62.5 µM (≈ 103 µg/mL) | 3.1 µM (≈ 5.1 µg/mL) | 62.5 µM (≈ 103 µg/mL) | ~100 µM (≈ 164 µg/mL) | 92 µM (≈ 151 µg/mL) | 8.9 µM (≈ 14.6 µg/mL) | < 4.00 | < 4.00 | < 4.00 | –
2 | CN1C(=O)[C@H](Cc2ccc(-c3ccccc3)cc2)NC(=O)CNC(=O)[C@H](CCCNC(=N)N)NC(=O)[C@@H](Cc2ccccc2)NC(=O)CSC[C@@H](C(=O)NCC(N)=O)NC(=O)[C@H](CCCNC(=N)N)NC(=O)[C@H](CO)NC(=O)[C@H](Cc2ccc(-c3ccccc3)cc2)NC(=O)[C@@H]1Cc1ccccc1 [G9066] ({CH2CO}-[dF]RG[Bip][NMeF][Bip]SRCG-NH2; thioether N-9) | 6.3 µM (≈ 9 µg/mL) | 3.1 µM (≈ 4.43 µg/mL) | 1.6 µM | ~100 µM (≈ 143 µg/mL) | >100 µM | 5.7 µM (≈ 8.14 µg/mL) | 3.1 µM | 31.3 µM (≈ 44.7 µg/mL) | 3.1 µM (≈ 4.43 µg/mL) | 31.3 µM (≈ 44.7 µg/mL) | ~100 µM (≈ 143 µg/mL) | – | 6.8 µM (≈ 9.72 µg/mL) | < 4.00 | < 4.00 | < 4.00 | –
3 | CCCCCC[C@H]1OC(=O)CNC(=O)[C@H]([C@H](C)O)NC(=O)[C@H](CO)NC(=O)[C@H]([C@H](C)CC)NC(=O)[C@H](CC(C)C)N(C)C(=O)[C@@H]1C [Globomycin] | 50 µM (≈ 32.8 µg/mL) | 1.1 µM (≈ 0.721 µg/mL) | 4.7 µM | – | 25 µM (≈ 16.4 µg/mL) | 0.5 µM (≈ 0.328 µg/mL) | 12.5 µM | >100 µM | 0.8 µM (≈ 0.525 µg/mL) | 50 µM (≈ 32.8 µg/mL) | – | 29.2 µM (≈ 19.2 µg/mL) | 11.5 µM (≈ 7.54 µg/mL) | < 4.00 | < 4.00 | < 4.00 | effect of lpp deletion on growth inhibition, CFT073, in words (CFT073 Δlpp; CFT073 Δlpp versus WT): resistant; effect of lpp deletion on growth inhibition, MG1655, in words (MG1655 Δlpp; MG1655 Δlpp versus WT): resistant
4 | CN[C@H](CC(C)C)C(=O)N[C@H]1C(=O)N[C@@H](CC(N)=O)C(=O)N[C@H]2C(=O)N[C@H]3C(=O)N[C@H](C(=O)N[C@H](C(=O)O)c4cc(O)cc(O)c4-c4cc3ccc4O)[C@H](O)c3ccc(c(Cl)c3)Oc3cc2cc(c3O[C@@H]2O[C@H](CO)[C@@H](O)[C@H](O)[C@H]2O[C@H]2C[C@](C)(N)[C@H](O)[C@H](C)O2)Oc2ccc(cc2Cl)[C@H]1O [Vancomycin] | – | – | – | – | – | – | – | – | – | – | – | – | – | < 4.00 | < 4.00 | < 4.00 | MIC (PA14 + EDTA; Pseudomonas aeruginosa): 6.3 µM (≈ 9.13 µg/mL); MIC (CFT073 + EDTA; Escherichia coli): 0.8 µM (≈ 1.16 µg/mL); MIC (CFT073 Δlpp + EDTA; Escherichia coli): 0.8 µM (≈ 1.16 µg/mL); MIC (MG1655; [6]): > 100 µM; MIC (CFT073 imp4213; Escherichia coli): 0.6 µM (≈ 0.87 µg/mL); MIC (MG1655 Δlpp + EDTA; Escherichia coli, MG1655): 0.8 µM (≈ 1.16 µg/mL); MIC (CFT073 Δlpp; Escherichia coli): > 100 µM; MIC (MG1655 + EDTA; Escherichia coli): 3.1 µM (≈ 4.49 µg/mL); MIC (MG1655 Δlpp; Escherichia coli, MG1655): > 100 µM; MIC (CFT073; [6]): > 100 µM; MIC (CFT073 imp4213 Δlpp; Escherichia coli): 0.7 µM (≈ 1.01 µg/mL)
